Reference: patent US20110053773A1, “METHODS OF IMPROVING NUTRITIONAL VALUE OF PLANTS” (UNIVERSITY OF TENNESSEE RESEARCH FOUNDATION, priority 2009, published 2011)

What was measured:
basil 'Genovese' = assay: Content analysis of basil: protein, minerals (Example 4, Tables 10-11); assay type: in vivo; conditions: 28 DA-A, rates g ai/ha: chlroprifos 3370, chlorothalonil 7900, paclobutrazol 9.7, mepiquat-chloride 37, Isoxadifen 16, Napthalic anhydride 527, + NIS 0.25 % v/v
Method: Greenhouse and laboratory studies were conducted to ascertain the tolerance and nutritional quality differences following postemergence applications of the insecticide chlorpyrifos, the fungicide chlorothalonil, the PGRs mepiquat-chloride and paclobutrazol, and the safeners napthalic anhydride and isoxadifen-ethyl on kale ‘Red Russian’ and basil ‘Genovese’. Visual injury was rated based on general phytotoxicity, chlorosis, and visual stunting and each measurement was based on a percent scale from 0 to 100 where 0 equals no visual response and 100 equals complete plant death. Kale and basil were both harvested approximately 4 weeks after treatments and plants were pooled over replicates for content analysis of crude protein, crude amino acid content, acid detergent fiber, neutral detergent fiber, total fatty acids, and/or key mineral content (including Na, Ca, P, Mg, K, Fe, Mn, Zn, and Cu). In addition, the amounts of key individual amino acids (aspartic acid, threonine, glutamic acid, proline, glycine, cysteine, valine, leucine, isoleucine, methionine, and lysine) and composite classifications of fatty acid (saturated fatty acids, monounsaturated fatty acids, polyunsaturated fatty acids) were also analyzed from these sub-samples for kale (Tables 10-14).

[1] = system: sweet corn (Zea mays var. rugosa) cultivar 'Incredible'; assay: Content analysis of sweet corn ears: crude protein, amino acids, detergent fiber, fatty acids, minerals (Example 1); assay type: in vivo; conditions: POST at b59 rates; every treatment incl. check also got atrazine 560 g ai/ha + COC 1% v/v; relative to treated check (atrazine), check=0
Text: Herbicide treatments were applied in a water carrier at 23 gallons of solution per acre on a field site near Knoxville, Tenn. and Painter, Va. Treatments include the following: 1) nicosulfuron at 35 g ai/ha (Accent); 2) mesotrione at 105 g ai/ha (Callisto); 3) nicosulfuron at 35 g ai/ha+mesotrione at 105 g ai/ha (Callisto+Accent); 4) tembotrione at 92 g ai/ha+isoxadifen-ethyl at 46 g ai/ha (Laudis); 5) topramezone at 15 g ai/ha (Impact); 6) nicosulfuron at 35 g ai/ha+isoxadifen-ethyl at 9 g ai/ha (Accent Q); 7) nicosulfuron at 35 g ai/ha+isoxadifen-ethyl at 9 g ai/ha+topramezone at 15 g ai/ha (Accent Q+Impact); 8) nicosulfuron 35 g ai/ha+isoxadifen-ethyl at 9 g ai/ha+mesotrione at 105 g ai/ha (Accent Q+Callisto); 9) treated check (atrazine or Aatrex). All treatments included a PRE application of atrazine plus metolachlor in order to maintain weed free conditions. In addition, all POST treatments (including the treated check) included atrazine at 560 g ai/ha and crop oil concentrate at 1% v/v. […] Sweet corn was harvested from the center two rows of each four row plot and weighed in the husk.

[2] = system: sweet corn variety 'Incredible'; assay: Sugar and key antioxidant content of sweet corn (Example 1, Table 15); assay type: in vivo, Zea mays var. rugosa; conditions: rates g ai/ha: Nicosulfuron 35, Mesotrione 105, Topramezone 18, Isoxadifen-ethyl 13, all incl. treated check with atrazine 560 g ai/ha + 1% v/v crop oil concentrate
Text: Herbicide treatments were applied in a water carrier at 23 gallons of solution per acre on a field site near Knoxville, Tenn. and Painter, Va. […] All treatments included a PRE application of atrazine plus metolachlor in order to maintain weed free conditions. In addition, all POST treatments (including the treated check) included atrazine at 560 g ai/ha and crop oil concentrate at 1% v/v. […] Sweet corn was harvested from the center two rows of each four row plot and weighed in the husk.

CCOP(=S)(OCC)Oc1nc(Cl)c(Cl)cc1Cl [chlroprifos]
ADF, Percent Increase Over the Untreated Check (on a % dry matter basis) (basil 'Genovese'): 10 % check | Calcium, Percent Increase Over the Untreated Check (on a % dry matter basis) (basil 'Genovese'): 3 % check | Copper, Percent Increase Over the Untreated Check (on a % dry matter basis) (basil 'Genovese'): 8 % check | Iron, Percent Increase Over the Untreated Check (on a % dry matter basis) (basil 'Genovese'): 57 % check | Magnesium, Percent Increase Over the Untreated Check (on a % dry matter basis) (basil 'Genovese'): 21 % check | Manganese, Percent Increase Over the Untreated Check (on a % dry matter basis) (basil 'Genovese'): 12 % check | NDF, Percent Increase Over the Untreated Check (on a % dry matter basis) (basil 'Genovese'): 9 % check | Phosphorous, Percent Increase Over the Untreated Check (on a % dry matter basis) (basil 'Genovese'): 50 % check | Potassium, Percent Increase Over the Untreated Check (on a % dry matter basis) (basil 'Genovese'): 27 % check | Protein, Percent Increase Over the Untreated Check (on a % dry matter basis) (basil 'Genovese'): 32 % check | Sodium, Percent Increase Over the Untreated Check (on a % dry matter basis) (basil 'Genovese'): 25 % check | Soluble protein, Percent Increase Over the Untreated Check (on a % dry matter basis) (basil 'Genovese'): 42 % check | Zinc, Percent Increase Over the Untreated Check (on a % dry matter basis) (basil 'Genovese'): 46 % check

Cc1c(C(=O)c2cnn(C)c2O)ccc(S(C)(=O)=O)c1C1=NOCC1 [Topramezone*IMPACT, topramezone]
Acid DF [1]: 2 % of check | Alanine [1]: 8 % of check | Amino Acid [1]: 7 % of check | Aspartic ac [1]: 6 % of check | Cysteine [1]: 3 % of check | Glutamic ac [1]: 6 % of check | Glycine [1]: 4 % of check | Isoleucine [1]: 10 % of check | Leucine [1]: 8 % of check | Lysine [1]: 10 % of check | Methionine [1]: 8 % of check | Neutral DF [1]: 7 % of check | Proline [1]: 6 % of check | Protein [1]: 8 % of check | Threonine [1]: 12 % of check | Valine [1]: 9 % of check | calcium [1]: 0 % of check | copper [1]: 0 % of check | iron [1]: 23 % of check | magnesium [1]: 13 % of check | manganese [1]: 38 % of check | mon fattyac [1]: 10 % of check | phosphorous [1]: 8 % of check | polyfattyac [1]: 9 % of check | potassium [1]: 6 % of check | sat fattyac [1]: 8 % of check | sodium [1]: 29 % of check | tot fattyac [1]: 9 % of check | zinc [1]: 4 % of check | Fructose, percent increase [2]: 63% | Gamma-tocopherol, percent increase [2]: 8% | Glucose, percent increase [2]: 40% | Lutein, percent increase [2]: 0% | Maltose, percent increase [2]: 8% | Sucrose, percent increase [2]: −18% | Total Sugars, percent increase [2]: 10% | Zeaxanthin, percent increase [2]: −8% | antheraxanthin, percent increase [2]: 23%

COc1cc(OC)nc(NC(=O)NS(=O)(=O)c2ncccc2C(=O)N(C)C)n1 [Nicosulfuron*ACCENT, nicosulfuron]
Acid DF [1]: 9 % of check | Alanine [1]: 1 % of check | Amino Acid [1]: −1 % of check | Aspartic ac [1]: −4 % of check | Cysteine [1]: 0 % of check | Glutamic ac [1]: −2 % of check | Glycine [1]: −4 % of check | Isoleucine [1]: 0 % of check | Leucine [1]: 0 % of check | Lysine [1]: 1 % of check | Methionine [1]: 0 % of check | Neutral DF [1]: 4 % of check | Proline [1]: −7 % of check | Protein [1]: 7 % of check | Threonine [1]: 2 % of check | Valine [1]: 0 % of check | calcium [1]: 0 % of check | copper [1]: 0 % of check | iron [1]: 14 % of check | magnesium [1]: 14 % of check | manganese [1]: 33 % of check | mon fattyac [1]: 15 % of check | phosphorous [1]: 6 % of check | polyfattyac [1]: 12 % of check | potassium [1]: 1 % of check | sat fattyac [1]: 12 % of check | sodium [1]: 21 % of check | tot fattyac [1]: 13 % of check | zinc [1]: 2 % of check | Fructose, percent increase [2]: 48% | Gamma-tocopherol, percent increase [2]: 1% | Glucose, percent increase [2]: 35% | Lutein, percent increase [2]: 9% | Maltose, percent increase [2]: 23% | Sucrose, percent increase [2]: −4% | Total Sugars, percent increase [2]: 16% | Zeaxanthin, percent increase [2]: 9% | antheraxanthin, percent increase [2]: 15%
